According to paper PMC10337664 (Journal of Chemical Information and Modeling, 2023):

Target: DCAF1 (DDB1-Cul4 associated factor 1), WDR domain (Homo sapiens, UniProt Q9Y4B6)
Assay: […] Å cocrystal structure
Type: binding

Chain of DCAF1 (DDB1-Cul4 associated factor 1), WDR domain (Q9Y4B6 1038-1400): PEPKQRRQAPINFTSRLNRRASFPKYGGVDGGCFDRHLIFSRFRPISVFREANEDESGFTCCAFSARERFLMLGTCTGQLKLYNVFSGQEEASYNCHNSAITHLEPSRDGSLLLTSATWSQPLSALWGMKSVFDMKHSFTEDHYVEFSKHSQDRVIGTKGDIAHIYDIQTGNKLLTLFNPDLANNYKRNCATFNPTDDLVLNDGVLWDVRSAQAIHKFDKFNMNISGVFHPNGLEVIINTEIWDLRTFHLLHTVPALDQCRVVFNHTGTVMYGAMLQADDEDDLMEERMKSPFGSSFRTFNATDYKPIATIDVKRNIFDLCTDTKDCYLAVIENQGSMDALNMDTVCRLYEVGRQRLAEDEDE

`Fc1cccc(N2CCCC(Nc3cc(N4CCOCC4)ncn3)C2)c1` (stereo not shown) [CYCA-117-70] showed a Kd of about 70 µM.
